# In PubChem BioAssay (NCI):
#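 1) Cells in 96-well plates. 2) Compound, 48 h, 5 concentrations. 3) Linear interpolation between surrounding doses. 4) Unreached endpoint = highest concentration. The concentration for 50% growth inhibition is given as GI50. TGI: concentration producing complete growth inhibition.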 Where a SMILES comes first, the peptide text is derived from it. The star is where a group is joined. Boc = CC(C)(C)OC(=O)*; OBn = c1ccc(CO*)cc1
# Legend:
# Test in all cases: NCI anticancer screen, dose series, 48 h
# A549 NSCLC = tested on: A549 NSCLC
# MDA-N = tested on: MDA-N
# OVCAR-5 ovarian = tested on: OVCAR-5 ovarian
# SK-MEL-5 melanoma = tested on: SK-MEL-5 melanoma
# SK-OV-3 ovarian = tested on: SK-OV-3 ovarian
# SN12C renal = tested on: SN12C renal
# TK-10 renal = tested on: TK-10 renal
# UACC-257 melanoma = tested on: UACC-257 melanoma
# NCI-H23 lung = tested on: NCI-H23 lung
# SF-295 CNS = tested on: SF-295 CNS
Compound,TGI (A549 NSCLC),TGI (MDA-N),TGI (OVCAR-5 ovarian),TGI (SK-MEL-5 melanoma),TGI (SK-OV-3 ovarian),TGI (SN12C renal),TGI (TK-10 renal),TGI (UACC-257 melanoma),TGI (NCI-H23 lung),TGI (SF-295 CNS),GI50 (A549 NSCLC),GI50 (NCI-H23 lung),GI50 (OVCAR-5 ovarian),GI50 (SF-295 CNS),GI50 (SK-MEL-5 melanoma),GI50 (SK-OV-3 ovarian),GI50 (SN12C renal),GI50 (TK-10 renal),GI50 (UACC-257 melanoma)
COc1cc(/C=C2\CCC(C)C3=C2NC(=S)NC3c2cc(OC)c(OC)c(OC)c2)cc(OC)c1OC (stereo not given),> 100 µM,> 100 µM,> 100 µM,59 µM,> 100 µM,> 100 µM,> 100 µM,> 100 µM,,,,,,,,,,,
O=C1c2cccc3cccc(c23)C(=O)N1CCCNOCCONCCCN1C(=O)c2cccc3cccc(c23)C1=O,> 100 µM,> 100 µM,> 100 µM,> 100 µM,> 100 µM,,> 100 µM,> 100 µM,> 100 µM,> 100 µM,,,,,,,,,
COc1cc2c(cc1OC)-c1c3c(cc4c1[C@@H](C2)N(C)CC4)OCO3,32.2 µM,,37.3 µM,19.3 µM,50.6 µM,39 µM,,26 µM,26.1 µM,16.7 µM,,,,,,,,,
O=C(NCCCNCCNC(=O)c1cc(-c2ccccc2)nc2ccccc12)c1cc(-c2ccccc2)nc2ccccc12,3.13 µM,3.36 µM,,3.03 µM,6.34 µM,3.24 µM,3.14 µM,3.08 µM,,3.19 µM,,,,,,,,,
COc1ccc(C2C(C#N)=C(S)N(C3OC(CO)C(O)C(O)C3O)C(c3ccccc3)=C2C(C)=O)cc1 (stereo not given),> 100 µM,> 100 µM,> 100 µM,60.7 µM,,> 100 µM,> 100 µM,> 100 µM,> 100 µM,> 100 µM,,,,,,,,,
Cc1ccc(-c2n[nH]c(=O)[nH]2)cc1[N+](=O)[O-],> 100 µM,> 100 µM,> 100 µM,> 100 µM,,> 100 µM,> 100 µM,> 100 µM,> 100 µM,> 100 µM,,,,,,,,,
O=c1[nH]c(Nc2cccc(Cl)c2)nc2nc[nH]c12,> 100 µM,,> 100 µM,> 100 µM,> 100 µM,> 100 µM,> 100 µM,> 100 µM,> 100 µM,> 100 µM,,,,,,,,,
CC(=O)c1cc2c(s1)C(=O)c1ccccc1C2=O,14.6 µM,4.74 µM,20.6 µM,0.588 µM,> 80.3 µM,16.3 µM,42.3 µM,3.15 µM,,8.99 µM,,,,,,,,,
COc1ccc(/C=C2\N=C(c3ccccc3)N(C3Nc4cc5c(cc4S3)NC(N3C(=O)/C(=C/c4ccc(OC)cc4)N=C3c3ccccc3)S5)C2=O)cc1 (stereo not given),> 100 µM,> 100 µM,> 100 µM,> 100 µM,,,> 100 µM,> 100 µM,> 100 µM,> 100 µM,,,,,,,,,
CCCCOCn1c(=O)[nH]c(=O)c2cc(Br)ccc21,> 100 µM,> 100 µM,> 100 µM,> 100 µM,> 100 µM,> 100 µM,> 100 µM,> 100 µM,,> 100 µM,,,,,,,,,
CCc1ccc2c(c1)CC1(C2)Cc2cc3c(cc2C1)C(=O)CC3 (stereo not given),71.8 µM,,> 100 µM,16.9 µM,> 100 µM,89.6 µM,> 100 µM,51.6 µM,96.6 µM,65.3 µM,,,,,,,,,
COC(=O)[C@@H]1C[C@@]2(C3C=CN(C(=O)C(F)(F)F)C=C3)c3ccccc3N(C(=O)C(F)(F)F)[C@H]2N1C(=O)OC,> 100 µM,,> 100 µM,> 100 µM,> 100 µM,> 100 µM,60.5 µM,> 100 µM,> 100 µM,> 100 µM,,,,,,,,,
Cc1c2c(OCCCCN3CCN(c4ncccn4)CC3)nn(C)c(=O)c2c(C)n1-c1ccccc1,40.9 µM,,37.6 µM,26.8 µM,35.4 µM,34.5 µM,33.5 µM,33.5 µM,37 µM,32.4 µM,,,,,,,,,
C=CC[C@@]1(C(=O)OC)[C@H](Sc2ccccc2)C1(C)C,> 100 µM,,> 100 µM,44.3 µM,> 100 µM,76.8 µM,> 100 µM,96.9 µM,97.3 µM,> 100 µM,,,,,,,,,
CC(C)(C)OC(=O)NC(Cc1ccccc1)C(=O)NC(Cc1ccccc1)C(=O)NCC(=O)OCc1ccccc1 (stereo not drawn) (Boc-Phe-Phe-Gly-OBn; configuration not given here),,53.3 µM,> 100 µM,,46 µM,85.9 µM,53.1 µM,> 100 µM,80.7 µM,,,,,,,,,,
C[C@]12CC[C@@H]3c4ccc(OC(=O)c5ccccc5)cc4CC[C@H]3[C@@H]1CC[C@@H]2Oc1c2ccccc2nc2ccccc12,13.2 µM,11.6 µM,> 50 µM,18.5 µM,> 50 µM,,> 50 µM,38.6 µM,> 50 µM,> 50 µM,,,,,,,,,
C[C@]12CC[C@H](O)CC1=CC[C@@H]1[C@@H]2CC[C@]2(C)/C(=N/OCCN3CCCC3)CC[C@@H]12,,34.3 µM,96.6 µM,28 µM,,93.6 µM,63.6 µM,27.7 µM,27.1 µM,40.6 µM,,,,,,,,,
c1ccc2c(Cc3nnc4sc(SSc5nn6c(Cc7c[nH]c8ccccc78)nnc6s5)nn34)c[nH]c2c1,88.4 µM,,53.1 µM,24.2 µM,> 100 µM,56.3 µM,> 100 µM,> 100 µM,34.7 µM,44.1 µM,,,,,,,,,
CN(C)CCCOCCn1c2c(c3ccccc31)CCCC2,31.8 µM,29 µM,30.5 µM,25.3 µM,,32.5 µM,32.6 µM,33.3 µM,94.6 µM,40.1 µM,,,,,,,,,
COc1ccc(C(=O)N2c3ccccc3Sc3ccccc32)c(C(F)(F)F)c1,> 100 µM,,> 100 µM,16.6 µM,> 100 µM,> 100 µM,> 100 µM,> 100 µM,> 100 µM,> 100 µM,0.515 µM,0.578 µM,1.61 µM,0.372 µM,0.692 µM,0.794 µM,1.3 µM,16.7 µM,13.7 µM
NCCCCNCCCNC(=O)c1nc(-c2csc(CCN)n2)sc1Cl,> 100 µM,,> 100 µM,> 100 µM,> 100 µM,> 100 µM,> 100 µM,> 100 µM,> 100 µM,> 100 µM,,,,,,,,,
CC(C)N(C)C(=O)C12C3C4C1C1C2C3C41C#N (stereo not given),> 100 µM,> 100 µM,> 100 µM,> 100 µM,,> 100 µM,> 100 µM,> 100 µM,> 100 µM,> 100 µM,,,,,,,,,
